Data reported in PubChem BioAssay (NCI).
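96-well plates; 48 h exposure; 5 concentrations. Endpoints by linear interpolation between flanking doses. Not reached: highest tested concentration assigned. TGI: total growth inhibition.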

What was measured:
Assay in all cases: NCI-60 cell line screen, 48 h
HOP-92 NSCLC = tested on: HOP-92 NSCLC
MDA-N = tested on: MDA-N
EKVX NSCLC = tested on: EKVX NSCLC
SW-620 colon = tested on: SW-620 colon
SK-OV-3 ovarian = tested on: SK-OV-3 ovarian
NCI-H460 lung = tested on: NCI-H460 lung
HS 578T breast = tested on: HS 578T breast
SF-268 CNS = tested on: SF-268 CNS
OVCAR-4 ovarian = tested on: OVCAR-4 ovarian
MCF7 breast = tested on: MCF7 breast
MDA-MB-231 breast = tested on: MDA-MB-231 breast
UO-31 renal = tested on: UO-31 renal
DU-145 prostate = tested on: DU-145 prostate
CAKI-1 renal = tested on: CAKI-1 renal
MDA-MB-435 = tested on: MDA-MB-435
SNB-19 CNS = tested on: SNB-19 CNS
HCT-116 colon = tested on: HCT-116 colon
MOLT-4 leukemia = tested on: MOLT-4 leukemia
BT-549 breast = tested on: BT-549 breast
UACC-257 melanoma = tested on: UACC-257 melanoma
A498 renal = tested on: A498 renal
SK-MEL-28 melanoma = tested on: SK-MEL-28 melanoma
SF-539 CNS = tested on: SF-539 CNS
TK-10 renal = tested on: TK-10 renal
T-47D breast = tested on: T-47D breast
HT29 colon = tested on: HT29 colon
NCI-H23 lung = tested on: NCI-H23 lung
ACHN renal = tested on: ACHN renal
HCC-2998 colon = tested on: HCC-2998 colon
COLO 205 colon = tested on: COLO 205 colon
U251 CNS = tested on: U251 CNS
A549 NSCLC = tested on: A549 NSCLC
PC-3 prostate = tested on: PC-3 prostate
SNB-75 CNS = tested on: SNB-75 CNS
UACC-62 melanoma = tested on: UACC-62 melanoma
786-0 renal = tested on: 786-0 renal
IGROV1 ovarian = tested on: IGROV1 ovarian
SF-295 CNS = tested on: SF-295 CNS
SK-MEL-2 melanoma = tested on: SK-MEL-2 melanoma
HOP-62 NSCLC = tested on: HOP-62 NSCLC
OVCAR-8 ovarian = tested on: OVCAR-8 ovarian
NCI-H522 lung = tested on: NCI-H522 lung
RPMI-8226 leukemia = tested on: RPMI-8226 leukemia
RXF 393 renal = tested on: RXF 393 renal
HCT-15 colon = tested on: HCT-15 colon
OVCAR-3 ovarian = tested on: OVCAR-3 ovarian
SK-MEL-5 melanoma = tested on: SK-MEL-5 melanoma
M14 melanoma = tested on: M14 melanoma
OVCAR-5 ovarian = tested on: OVCAR-5 ovarian
K-562 leukemia = tested on: K-562 leukemia
SN12C renal = tested on: SN12C renal
SR leukemia = tested on: SR leukemia
NCI/ADR-RES ovarian = tested on: NCI/ADR-RES ovarian
HL-60(TB) leukemia = tested on: HL-60(TB) leukemia
LOX IMVI melanoma = tested on: LOX IMVI melanoma
CCRF-CEM leukemia = tested on: CCRF-CEM leukemia
KM12 colon = tested on: KM12 colon
MALME-3M melanoma = tested on: MALME-3M melanoma
NCI-H226 lung = tested on: NCI-H226 lung

Measured: TGI

C=CCCCC1(C)CCNC1=S (stereo not given)
not listed: SR leukemia | NCI/ADR-RES ovarian | HL-60(TB) leukemia | LOX IMVI melanoma | CCRF-CEM leukemia | KM12 colon | MALME-3M melanoma | NCI-H226 lung
> 100 µM: all other assays above

Cc1ccc(C(=O)Oc2ccc(/C=C3\CCC/C(=C\c4ccc(OC(=O)c5ccc(C)cc5)cc4)C3=O)cc2)cc1
not listed: SK-OV-3 ovarian | A498 renal | RXF 393 renal | K-562 leukemia | MALME-3M melanoma | NCI-H226 lung
> 100 µM: all other assays above

O=S(=O)(c1cc(Cl)ccc1Cl)N1CCN(c2cccc(Cl)c2)CC1
not listed: SK-OV-3 ovarian | MDA-MB-435 | COLO 205 colon | UACC-62 melanoma | SK-MEL-2 melanoma | M14 melanoma | NCI/ADR-RES ovarian
> 100 µM: all other assays above

CC1=N[C@@](C)(C2CC3C=CC2C3=O)COC1=O (stereo not given in full)
not listed: SK-MEL-2 melanoma | RPMI-8226 leukemia | HCT-15 colon | NCI/ADR-RES ovarian | LOX IMVI melanoma
> 100 µM: all other assays above
